US20050197350A1, “Novel quinoline, tetrahydroquinazoline, and pyrimidine derivatives and methods of treatment related to the use thereof” (TAISHO PHARMACEUTICAL CO., LTD., priority 2003, published 2005)

These molecules were tested on MCH receptors (assay: MCH receptor activity class (method not given)). Details: class by percent of control at 10^-7 M or IC50.

Row | Compound | class
1 | CCOC(=O)c1cccc(NC(=O)N[C@H]2CC[C@@H](Nc3nccc(N(C)C)n3)CC2)c1 [compound 2217] | 3 (Class 3 The value of percent of control at 10^−7 M was more than 60% or the value of IC50 was more than 200 nM.)
2 | C=C(C)c1cccc(C(C)(C)NC(=O)N[C@H]2CC[C@@H](Nc3nccc(N(C)C)n3)CC2)c1 [compound 2218] | 3 (Class 3 The value of percent of control at 10^−7 M was more than 60% or the value of IC50 was more than 200 nM.)
3 | CN(C)c1ccnc(N[C@H]2CC[C@@H](NC(=O)Nc3cccc4ccccc34)CC2)n1 [compound 2220] | 3 (Class 3 The value of percent of control at 10^−7 M was more than 60% or the value of IC50 was more than 200 nM.)
4 | CN(C)c1ccnc(N[C@H]2CC[C@@H](NC(=O)NC3C[C@H]3c3ccccc3)CC2)n1 (stereo partly drawn) [compound 2221] | 3 (Class 3 The value of percent of control at 10^−7 M was more than 60% or the value of IC50 was more than 200 nM.)
5 | CN(C)c1ccnc(N[C@H]2CC[C@@H](NC(=O)Nc3ccc(Oc4ccccc4)cc3)CC2)n1 [compound 2222] | 3 (Class 3 The value of percent of control at 10^−7 M was more than 60% or the value of IC50 was more than 200 nM.)
6 | CCCCCNC(=O)N[C@H]1CC[C@@H](Nc2nccc(N(C)C)n2)CC1 [compound 2223] | 3 (Class 3 The value of percent of control at 10^−7 M was more than 60% or the value of IC50 was more than 200 nM.)
7 | CC(NC(=O)NC1CCC(Nc2nccc(N(C)C)n2)CC1)c1ccccc1 (stereo not drawn) [compound 2227] | 3 (Class 3 The value of percent of control at 10^−7 M was more than 60% or the value of IC50 was more than 200 nM.)
8 | CN(C)c1ccnc(N[C@H]2CC[C@@H](NC(=O)Nc3c(Cl)c(Cl)cc(Cl)c3Cl)CC2)n1 [compound 2228] | 3 (Class 3 The value of percent of control at 10^−7 M was more than 60% or the value of IC50 was more than 200 nM.)
9 | CN(C)c1ccnc(N[C@H]2CC[C@@H](NC(=O)Nc3ccc(Br)cc3Br)CC2)n1 [compound 2229] | 3 (Class 3 The value of percent of control at 10^−7 M was more than 60% or the value of IC50 was more than 200 nM.)
10 | CN(C)c1ccnc(N[C@H]2CC[C@@H](NC(=O)NCc3ccc(Cl)cc3Cl)CC2)n1 [compound 2230] | 3 (Class 3 The value of percent of control at 10^−7 M was more than 60% or the value of IC50 was more than 200 nM.)
11 | COc1ccc(NC(=O)N[C@H]2CC[C@@H](Nc3nccc(N(C)C)n3)CC2)c(OC)c1 [compound 2231] | 3 (Class 3 The value of percent of control at 10^−7 M was more than 60% or the value of IC50 was more than 200 nM.)
12 | CCOc1ccccc1NC(=O)N[C@H]1CC[C@@H](Nc2nccc(N(C)C)n2)CC1 [compound 2232] | 3 (Class 3 The value of percent of control at 10^−7 M was more than 60% or the value of IC50 was more than 200 nM.)
13 | CN(C)c1ccnc(N[C@H]2CC[C@@H](NC(=O)NCc3ccccc3F)CC2)n1 [compound 2233] | 3 (Class 3 The value of percent of control at 10^−7 M was more than 60% or the value of IC50 was more than 200 nM.)
14 | Cc1cc([N+](=O)[O-])ccc1NC(=O)N[C@H]1CC[C@@H](Nc2nccc(N(C)C)n2)CC1 [compound 2234] | 3 (Class 3 The value of percent of control at 10^−7 M was more than 60% or the value of IC50 was more than 200 nM.)
15 | Cc1ccc([N+](=O)[O-])cc1NC(=O)N[C@H]1CC[C@@H](Nc2nccc(N(C)C)n2)CC1 [compound 2235] | 3 (Class 3 The value of percent of control at 10^−7 M was more than 60% or the value of IC50 was more than 200 nM.)
16 | Cc1ccccc1CNC(=O)N[C@H]1CC[C@@H](Nc2nccc(N(C)C)n2)CC1 [compound 2236] | 3 (Class 3 The value of percent of control at 10^−7 M was more than 60% or the value of IC50 was more than 200 nM.)
17 | CN(C)c1ccnc(N[C@H]2CC[C@@H](NC(=O)Nc3ccccc3[N+](=O)[O-])CC2)n1 [compound 2237] | 3 (Class 3 The value of percent of control at 10^−7 M was more than 60% or the value of IC50 was more than 200 nM.)
18 | CN(C)c1ccnc(N[C@H]2CC[C@@H](NC(=O)Nc3ccc4c(c3)OCO4)CC2)n1 [compound 2238] | 3 (Class 3 The value of percent of control at 10^−7 M was more than 60% or the value of IC50 was more than 200 nM.)
19 | COc1cc(NC(=O)N[C@H]2CC[C@@H](Nc3nccc(N(C)C)n3)CC2)cc(OC)c1OC [compound 2239, N-(cis-4-{[4-(dimethylamino)pyrimidin-2-yl]amino}cyclohexyl)-N′-(3,4,5-trimethoxyphenyl)urea] | 1 (Class 1: The value of percent of control at 10^−7 M was less than 40% or the value of IC50 was less than 50 nM.)
20 | COc1ccc(NC(=O)N[C@H]2CC[C@@H](Nc3nccc(N(C)C)n3)CC2)cc1OC [compound 2240] | 3 (Class 3 The value of percent of control at 10^−7 M was more than 60% or the value of IC50 was more than 200 nM.)
21 | COc1ccc(NC(=O)N[C@H]2CC[C@@H](Nc3nccc(N(C)C)n3)CC2)cc1Cl [compound 2241] | 3 (Class 3 The value of percent of control at 10^−7 M was more than 60% or the value of IC50 was more than 200 nM.)
22 | CN(C)c1ccnc(N[C@H]2CC[C@@H](NC(=O)Nc3ccc(Br)cc3C(F)(F)F)CC2)n1 [compound 2242] | 3 (Class 3 The value of percent of control at 10^−7 M was more than 60% or the value of IC50 was more than 200 nM.)
23 | CN(C)c1ccnc(N[C@H]2CC[C@@H](NC(=O)NCc3ccc(Br)cc3)CC2)n1 [compound 2243] | 3 (Class 3 The value of percent of control at 10^−7 M was more than 60% or the value of IC50 was more than 200 nM.)
24 | Cc1cc(Cl)ccc1NC(=O)N[C@H]1CC[C@@H](Nc2nccc(N(C)C)n2)CC1 [compound 2244, N-(4-chloro-2-methylphenyl)-N′-(cis-4-{[4-(dimethylamino)pyrimidin-2-yl]amino}cyclohexyl)urea] | 2 (Class 2: The value of percent of control at 10^−7 M was from 40% to 60% or the value of IC′50 was from 50 nM to 200 nM.)
25 | CN(C)c1ccnc(N[C@H]2CC[C@@H](NC(=O)NCc3ccc(F)cc3)CC2)n1 [compound 2245] | 3 (Class 3 The value of percent of control at 10^−7 M was more than 60% or the value of IC50 was more than 200 nM.)
26 | COc1ccc(NC(=O)N[C@H]2CC[C@@H](Nc3nccc(N(C)C)n3)CC2)c(C)c1 [compound 2246] | 3 (Class 3 The value of percent of control at 10^−7 M was more than 60% or the value of IC50 was more than 200 nM.)
27 | COc1cc(OC)c(NC(=O)N[C@H]2CC[C@@H](Nc3nccc(N(C)C)n3)CC2)cc1Cl [compound 2247] | 1 (Class 1: The value of percent of control at 10^−7 M was less than 40% or the value of IC50 was less than 50 nM.)
28 | Cc1cc(Br)ccc1NC(=O)N[C@H]1CC[C@@H](Nc2nccc(N(C)C)n2)CC1 [compound 2249, N-(4-bromo-2-methylphenyl)-N′-(cis-4-{[4-(dimethylamino)pyrimidin-2-yl]amino}cyclohexyl)urea] | 2 (Class 2: The value of percent of control at 10^−7 M was from 40% to 60% or the value of IC′50 was from 50 nM to 200 nM.)
29 | CN(C)c1ccnc(N[C@H]2CC[C@@H](NC(=O)Nc3ccc4c(c3)OCCO4)CC2)n1 [compound 2251] | 3 (Class 3 The value of percent of control at 10^−7 M was more than 60% or the value of IC50 was more than 200 nM.)
30 | CC(C)c1cc(Br)c(NC(=O)N[C@H]2CC[C@@H](Nc3nccc(N(C)C)n3)CC2)c(Br)c1 [compound 2252] | 2 (Class 2: The value of percent of control at 10^−7 M was from 40% to 60% or the value of IC′50 was from 50 nM to 200 nM.)
